From the NIST ThermoML archive (doi:10.1016/j.jct.2008.08.013)
Numbers after ± are expanded uncertainties.

Assay: xn = mol fraction of the nth substance listed
Settings: 101 kPa, Liquid, Vibrating tube method

ClCCl [dichloromethane] + O=[N+]([O-])c1ccccc1
mass density [kg/m3]
Settings	288.15 K	293.15 K	298.15 K	303.15 K
x1 = 0.021	1213.16 ± 0.13	1204.27 ± 0.13	1199.65 ± 0.12	1195.1 ± 0.12
x1 = 0.1053	1219.99 ± 0.13	1211.21 ± 0.13	1206.52 ± 0.12	1201.87 ± 0.12
x1 = 0.2003	1228.35 ± 0.14	1219.76 ± 0.13	1214.95 ± 0.13	1210.13 ± 0.13
x1 = 0.2499	1233.02 ± 0.14	1224.51 ± 0.13	1219.62 ± 0.13	1214.69 ± 0.13
x1 = 0.3003	1238.01 ± 0.14	1229.63 ± 0.14	1224.61 ± 0.13	1219.55 ± 0.13
x1 = 0.3521	1243.35 ± 0.14	1235.09 ± 0.14	1229.95 ± 0.13	1224.73 ± 0.13
x1 = 0.4025	1248.78 ± 0.14	1240.64 ± 0.14	1235.37 ± 0.14	1229.98 ± 0.13
x1 = 0.4492	1254.01 ± 0.15	1245.99 ± 0.14	1240.56 ± 0.14	1235.01 ± 0.14
x1 = 0.4975	1259.65 ± 0.15	1251.71 ± 0.14	1246.14 ± 0.14	1240.37 ± 0.14
x1 = 0.5512	1266.13 ± 0.15	1258.32 ± 0.15	1252.51 ± 0.14	1246.51 ± 0.14
x1 = 0.5995	1272.2 ± 0.15	1264.47 ± 0.15	1258.48 ± 0.15	1252.21 ± 0.14
x1 = 0.6495	1278.7 ± 0.16	1271.04 ± 0.15	1264.8 ± 0.15	1258.26 ± 0.15
x1 = 0.6999	1285.45 ± 0.16	1277.91 ± 0.16	1271.39 ± 0.15	1264.55 ± 0.15
x1 = 0.7496	1292.42 ± 0.16	1284.93 ± 0.16	1278.12 ± 0.16	1270.91 ± 0.15
x1 = 0.799	1299.65 ± 0.16	1292.18 ± 0.16	1285 ± 0.16	1277.46 ± 0.16
x1 = 0.8501	1307.44 ± 0.17	1299.97 ± 0.17	1292.47 ± 0.16	1284.49 ± 0.16
x1 = 0.8975	1315.12 ± 0.17	1307.6 ± 0.17	1299.69 ± 0.17	1291.27 ± 0.16
x1 = 0.9798	1329.58 ± 0.18	1321.91 ± 0.17	1313.24 ± 0.17	1303.98 ± 0.17
